# From patent publication US10098900B2, “Pharmaceutical compositions and their use for treatment of cancer and autoimmune diseases” (ZHEJIANG DTRM BIOPHARMA CO. LTD., priority 2015, dated 2018)
# Marks after values point to notes of the source that are not given here.
# How the values were obtained:
# TMD-8 cell line = assay: Inhibition assay of tumor cell activity (cell viability), TMD-8; format: cell-based, human; conditions: individual compound; for inhibition at 0.01 µM / inhibition at 0.1 µM / inhibition at 1 µM / inhibition at 10 µM / inhibition at 100 µM: Homo sapiens, TMD8, 48 h, read-out: Inh % on TMD-8 cell line (AVG); for Inh % on TMD-8 cell line (AVG): 48 h
# Protocol: Inhibition Assay of Tumor Cell Activity:
# Tumor cells (TMD-8, DoHH2 and WSU-DLCL2) were transferred and attached to 96-well plates. After one night, blank buffer and selected concentrations (0.01 nM-100 μM) of the test compound solution were added. After 48 hours incubation, CellTiter-Go was added to lyse the cells. Recording luminescent signal and calculate the percent inhibition of cell viability
# TMD-8 lymphoma xenograft = assay: Inhibition of tumor growth in vivo, TMD-8 lymphoma xenograft SCID mouse model; conditions: for Antitumor effect (%): TMD-8, Oral, BID
# Protocol: Inhibition Study of Tumor Growth In Vivo:
# SCID mice or nude mice (weighing about 18 g at the beginning of the experiment) were randomly divided into groups by the software in order to achieve close average weights between groups and control the bias within the allowable range. The mice were injected BTK cell lines (TMD-8, WSU-DLCL2 and DoHH-2) for tumor formation. Inhibitors were administered orally once or twice a day, a total of 14 days, 21 days or 28 days. Body weights and tumor volume were recorded.
# Xenograft Tumor Models Inoculated with TMD-8, or DoHH2, or WSU-DLCL2 Tumor Cell Lines:
# TMD-8 is a sensitive human diffuse large B-cell lymphoma cell line, and DoHH2 is a more difficult to treat human follicular lymphoma cell line, while WSU-DLCL2 is a multi-drug resistant (MDR) human non-Hodgkin's lymphoma cell line. Drug combination therapies provide better efficacies in all three tumor models than single targeted agent alone.
# The TMD-8, DoHH2, WSU-DLCL2 tumor cells were maintained in vitro as a suspension culture in RPMI-1640 medium supplemented with 10% heat inactivated fetal calf serum at 37° C. in an atmosphere of 5% CO2 in air. The tumor cells were routinely subcultured twice weekly. The cells growing in an exponential growth phase were harvested and counted for tumor inoculation. Each mouse was inoculated subcutaneously at the right flank with the tumor cells (10×10^6) in 0.2 ml of PBS with Matrigel (1:1) for tumor development. The treatments were started after the average tumor size reached approximately 100-200 mm^3. Each group consisted of 6-10 tumor-bearing mice. The testing article (vehicle, compound or combination) was orally administrated to the mice according to the predetermined doses for 14-days or 21-days. Animal body weight and tumor volume were measured every 2- or 3-days throughout the treatment.
# [1] = test system: collagen induced arthritis; assay: Collagen-induced arthritis (CIA) model in male DBA/1 mice (clinical score, histopathology); format: in vivo, mouse; parameters: Clinical Score (Mean) / Pathological score (Mean ± SEM), Inflammatory cell infiltration / Pathological score (Mean ± SEM), Pannus growth / Pathological score (Mean ± SEM), Cartilage injury / Pathological score (Mean ± SEM), Bone resorption / Pathological score (Mean ± SEM), Total: scale not given here; conditions: CIA study; for Clinical Score (Mean): Dexamethasone 0.2 mg/kg
# Protocol: Collagen-Induced Arthritis (CIA) Model: The combination of Compounds 3 and 12 was evaluated in collagen induced arthritis (CIA) mouse model in Male DBA/1 mice. The animals were divided into 8 groups, including a normal, a vehicle, […] treatment groups: […] On the same day, immunized mice were randomly divided into 7 groups: […] The treatments were given orally for 2 consecutive weeks. Body weight and clinical score were monitored through the study (recorded three times a week started after second immunization). At the end of the study, animals were euthanized and both hind paws were collected for histopathology analysis.
# [2] = test system: adjuvant-induced arthritis; assay: Adjuvant-induced arthritis (AA/AIA) model in female Lewis rats (paw volume, clinical score, histopathology); format: in vivo, rat; parameters: Pathological score (Mean ± SEM), Inflammatory cell infiltration / Pathological score (Mean ± SEM), Pannus growth / Pathological score (Mean ± SEM), Cartilage injury / Pathological score (Mean ± SEM), Bone resorption / Pathological score (Mean ± SEM), Total: scale not given here; conditions: for Paw volume (mL), Mean: 3 mg/kg BID (positive control)
# Text: Adjuvant-Induced Arthritis AA Model: […] All rats except the normal group were immunized with complete Freund's adjuvant (CFA) subcutaneously at the left hind paw to induce arthritis at day 0. […] The treatments were given orally for 3 consecutive weeks. The body weight, paw volume and clinical score were monitored every other day after day 13 throughout the course of the study. At the terminal point, right hind paws were collected for histopathology analysis with H.E. staining.
# [3] = Left hind paw, Dexamethasone 0.2 mg/kg QD
# [4] = Right hind paw, Dexamethasone 0.2 mg/kg QD
smiles,measurement,setting,value
"Nc1cccc2c1CN(C1CCC(=O)NC1=O)C2=O (stereo not drawn) [Compound 16, Lenalidomide]",inhibition at 0.01 µM,TMD-8 cell line; 0.01 uM (10 nM),7.43%
same,inhibition at 0.1 µM,TMD-8 cell line; 0.1 uM (100 nM),21%
same,inhibition at 1 µM,"TMD-8 cell line; 1 uM (1,000 nM)",94.2%
same,Antitumor effect (%),"TMD-8 lymphoma xenograft; FIG. 4, 21 days, 10 mg/kg",16%
same,Antitumor effect (%),"TMD-8 lymphoma xenograft; FIG. 4, 21 days, 30 mg/kg",42%
"N#CC[C@H](C1CCCC1)n1cc(-c2ncnc3[nH]ccc23)cn1 [Compound 10, Ruxolitinib]",inhibition at 0.01 µM,TMD-8 cell line; 0.01 uM (10 nM),0.05%
same,inhibition at 0.1 µM,TMD-8 cell line; 0.1 uM (100 nM),-5.53%
same,inhibition at 1 µM,"TMD-8 cell line; 1 uM (1,000 nM)",101%
[2H]/C=C\C(=O)N1CC[C@@H](n2nc(-c3ccc(Oc4c(F)c(F)cc(F)c4F)cc3F)c3c(N)ncnc32)C1 [Compound 7],inhibition at 0.01 µM,TMD-8 cell line; 0.01 uM (10 nM),33.9%
same,inhibition at 0.1 µM,TMD-8 cell line; 0.1 uM (100 nM),58.7%
same,inhibition at 1 µM,"TMD-8 cell line; 1 uM (1,000 nM)",58.6%
same,inhibition at 10 µM,TMD-8 cell line,62.9%
same,inhibition at 100 µM,TMD-8 cell line,99.3%
"CC1(C)CCC(CN2CCN(c3ccc(C(=O)NS(=O)(=O)c4ccc(NCC5CCOCC5)c([N+](=O)[O-])c4)c(Oc4cnc5[nH]ccc5c4)c3)CC2)=C(c2ccc(Cl)cc2)C1 [Compound 12, Venetoclax]",inhibition at 0.01 µM,TMD-8 cell line; 0.01 uM (10 nM),11.1%
same,inhibition at 0.1 µM,TMD-8 cell line; 0.1 uM (100 nM),18.8%
same,inhibition at 1 µM,"TMD-8 cell line; 1 uM (1,000 nM)",37.6%
same,Inh % on TMD-8 cell line (AVG),TMD-8 cell line; 0.01 uM (10 nM),11.12%
same,Inh % on TMD-8 cell line (AVG),TMD-8 cell line; 0.1 uM (100 nM),18.81%
same,Inh % on TMD-8 cell line (AVG),"TMD-8 cell line; 1 uM (1,000 nM)",37.55%
same,Antitumor effect (%),"TMD-8 lymphoma xenograft; FIG. 12, 14 days, 5 mg/kg",12%
"C=CC(=O)N1CCC[C@@H](n2nc(-c3ccc(Oc4ccccc4)cc3)c3c(N)ncnc32)C1 [Compound 9, Ibrutinib]",inhibition at 0.01 µM,TMD-8 cell line; 0.01 uM (10 nM),56.2%
same,inhibition at 0.1 µM,TMD-8 cell line; 0.1 uM (100 nM),59.1%
same,inhibition at 1 µM,"TMD-8 cell line; 1 uM (1,000 nM)",66.1%
same,inhibition at 10 µM,TMD-8 cell line,81.4%
same,inhibition at 100 µM,TMD-8 cell line,99.9%
"CC[C@H](Nc1ncnc2[nH]cnc12)c1nc2cccc(F)c2c(=O)n1-c1ccccc1 [Compound 8, Idelalisib]",inhibition at 0.01 µM,TMD-8 cell line; 0.01 uM (10 nM),29.4%
same,inhibition at 0.1 µM,TMD-8 cell line; 0.1 uM (100 nM),48.8%
same,inhibition at 1 µM,"TMD-8 cell line; 1 uM (1,000 nM)",68.9%
same,inhibition at 10 µM,TMD-8 cell line,87.7%
same,inhibition at 100 µM,TMD-8 cell line,96.8%
same,Antitumor effect (%),"TMD-8 lymphoma xenograft; FIG. 3, 21 days, 10 mg/kg",26%
same,Antitumor effect (%),"TMD-8 lymphoma xenograft; FIG. 12, 14 days, 10 mg/kg",48%
"CN(Cc1cnc2nc(N)nc(N)c2n1)c1ccc(C(=O)N[C@@H](CCC(=O)O)C(=O)O)cc1 [Compound 18, Methotrexate]",Inh % on TMD-8 cell line (AVG),TMD-8 cell line; 0.01 uM (10 nM),−8.45%
same,Inh % on TMD-8 cell line (AVG),TMD-8 cell line; 0.1 uM (100 nM),32.04%
same,Inh % on TMD-8 cell line (AVG),"TMD-8 cell line; 1 uM (1,000 nM)",39.55%
C[C@@H]1C[C@H]2[C@@H]3CCC4=CC(=O)C=C[C@]4(C)[C@@]3(F)[C@@H](O)C[C@]2(C)[C@@]1(O)C(=O)CO [Dexamethasone],"Pathological score (Mean ± SEM), Total",[1]; Dexamethasone 0.2 mg/kg QD,0.00 ± 0.00
same,"Pathological score (Mean ± SEM), Bone resorption",[1]; [3],0.00 ± 0.00
same,"Pathological score (Mean ± SEM), Cartilage injury",[1]; [3],0.00 ± 0.00
same,"Pathological score (Mean ± SEM), Inflammatory cell infiltration",[1]; [3],0.00 ± 0.00
same,"Pathological score (Mean ± SEM), Pannus growth",[1]; [3],0.00 ± 0.00
same,"Pathological score (Mean ± SEM), Bone resorption",[1]; [4],0.00 ± 0.00
same,"Pathological score (Mean ± SEM), Cartilage injury",[1]; [4],0.00 ± 0.00
same,"Pathological score (Mean ± SEM), Inflammatory cell infiltration",[1]; [4],0.00 ± 0.00
same,"Pathological score (Mean ± SEM), Pannus growth",[1]; [4],0.00 ± 0.00
same,Clinical Score (Mean),[1]; day 21,0.00
same,Clinical Score (Mean),[1]; day 32,0.60***
same,Clinical Score (Mean),[1]; day 39,0.40***
same,Clinical Score (Mean),[1]; day 42,0.20***
"CO[C@H]1C[C@@H]2CC[C@@H](C)[C@@](O)(O2)C(=O)C(=O)N2CCCC[C@H]2C(=O)O[C@H]([C@H](C)C[C@@H]2CC[C@@H](O)[C@H](OC)C2)CC(=O)[C@H](C)/C=C(\C)[C@@H](O)[C@@H](OC)C(=O)[C@H](C)C[C@H](C)/C=C/C=C/C=C/1C [Compound 17, Rapamycin]",inhibition at 0.01 µM,TMD-8 cell line; 0.01 uM (10 nM),58.7%
same,inhibition at 0.1 µM,TMD-8 cell line; 0.1 uM (100 nM),59.8%
same,inhibition at 1 µM,"TMD-8 cell line; 1 uM (1,000 nM)",65%
"Cc1cc(O)c(-c2ccc([C@@H](C)CN(C)C)cc2)c2c1[nH]c(=O)c1sccc12 [Compound 13, (R)-9-(4-(1-(dimethylamino)propan-2-yl)phenyl)-8-hydroxy-6-methylthieno[2,3-c]quinolin-4(5H)-one]",inhibition at 0.01 µM,TMD-8 cell line; 0.01 uM (10 nM),8.71%
same,inhibition at 0.1 µM,TMD-8 cell line; 0.1 uM (100 nM),49.1%
same,inhibition at 1 µM,"TMD-8 cell line; 1 uM (1,000 nM)",101%
"C[C@@H]1CCN(C(=O)CC#N)C[C@@H]1N(C)c1ncnc2[nH]ccc12 [Compound 11, Tofactinib]",Inh % on TMD-8 cell line (AVG),TMD-8 cell line; 0.01 uM (10 nM),6.02%
same,Inh % on TMD-8 cell line (AVG),TMD-8 cell line; 0.1 uM (100 nM),1.31%
same,Inh % on TMD-8 cell line (AVG),"TMD-8 cell line; 1 uM (1,000 nM)",6.66%
same,"Paw volume (mL), Mean",[2]; Day 0,1.00 mL
same,"Paw volume (mL), Mean",[2]; Day 17,1.54*** mL
same,"Paw volume (mL), Mean",[2]; Day 26,1.37*** mL
same,"Paw volume (mL), Mean",[2]; Day 28,1.33*** mL
same,"Paw volume (mL), Mean",[2]; Day 31,1.23*** mL
same,"Paw volume (mL), Mean",[2]; Day 33,1.23*** mL
same,"Pathological score (Mean ± SEM), Bone resorption","[2]; AA study, 11, 3 mg/kg",0.5 ± 0.22
same,"Pathological score (Mean ± SEM), Cartilage injury","[2]; AA study, 11, 3 mg/kg",0.2 ± 0.20
same,"Pathological score (Mean ± SEM), Inflammatory cell infiltration","[2]; AA study, 11, 3 mg/kg",1.9 ± 0.18
same,"Pathological score (Mean ± SEM), Pannus growth","[2]; AA study, 11, 3 mg/kg",0.4 ± 0.22
same,"Pathological score (Mean ± SEM), Total","[2]; AA study, 11, 3 mg/kg",3.0 ± 0.73
"CO[C@H]1C[C@@H]2CC[C@@H](C)[C@@](O)(O2)C(=O)C(=O)N2CCCC[C@H]2C(=O)O[C@H]([C@H](C)C[C@@H]2CC[C@@H](OCCO)[C@H](OC)C2)CC(=O)[C@H](C)/C=C(\C)[C@@H](O)[C@@H](OC)C(=O)[C@H](C)C[C@H](C)/C=C/C=C/C=C/1C [Compound 14, Everolimus]",tumor disappearance,"TMD-8 lymphoma xenograft; TMD-8 mice model, text",tumor disappearance
